Reference: paper PMC7469689, “Substituted 4,5′-Bithiazoles as Catalytic Inhibitors of Human DNA Topoisomerase IIα” (Journal of Chemical Information and Modeling, 2020)
Read-outs that look alike come from different tables or passages of the source.

How the values were obtained:
[1] = biological target: T1, human topo IIα (Homo sapiens, UniProt P11388); test: Human topoisomerase II competitive ATPase assay; assay type: biochemical
T1 construct: purchased Inspiralis (Norwich, U.K.)
Method: The human topo competitive ATPase assay was executed at Inspiralis (Norwich, U.K.). The compound was analyzed using a kinase/lactate dehydrogenase assay as described above.
A mixture of the assay buffer (20 mM Tris–HCl, 5 mM magnesium acetate, 125 mM potassium acetate, 2 mM DTT, pH 7.9), linear pBR322 (1.5 μL of 1 mg/mL per assay), phosphoenol pyruvate (0.5 μL of 80 mM per assay), pyruvate kinase/lactate dehydrogenase mix (0.75 μL per assay), NADH (1 μL of 20 mM per assay), DMSO (1.5 μL per assay), and water (32.85 μL per assay) was prepared. This mixture (41.1 μL) was put into the wells of a 384-well microtiter plate. DMSO (0.5 μL) or the diluted investigated compound in the DMSO was added to the wells and mixed. Subsequently, 5 μL of the dilution buffer or human topo IIα (12 nM final concentration) was added and mixed. Before the run, a prerun was done where we added 3.4 μL of the appropriate concentration of ATP and monitored the OD340 for up to 35 min. The assay temperature was 37 °C. Two negative controls (4% DMSO and dilution buffer without enzyme) were used in the presence of 2 mM ATP. The ATP concentrations in this assay were 0.025, 0.05, 0.075, 0.1, 0.25, 0.5, 0.75, and 1 mM. The assays were executed in duplicate at 3.9, 31, 50, 75, and 100 μM final concentrations of the investigated compound 1. DMSO has a final concentration of 4% (v/v) in all of the reactions.
8. Human topoisomerase II ATPase assays at different concentration of the ATP – Competitive ATPase assay
The spectrophotometer produces an output as change in OD340 with time (data not shown).
The data from the runs after the addition of the ATP were plotted after adjusting the starting OD340 to zero. Lines are fitted to these by linear regression and the rates (OD change/min) calculated. The rates for each ATP and inhibitor concentration were then calculated as μM ATP hydrolysed/min using an extinction coefficient of 6.22 M-1 cm-1 and a path length of 0.5 cm. The rates were then plotted against the ATP concentration and curves fitted to the data using the hyperbolic equation y=(ax/(b+x) where y = rate, x = [ATP], a = Vmax and b=Km.
Using the equation y=y0+(ax/(b+x)) it was possible to solve it and obtain values. […]
concentrations after subtraction of the background rate and calculated Km (mM ATP) and Vmax (μM ATP/min) values. They were calculated from equation y = (ax /(b+x) where y = rate, x = [ATP], a = Vmax.
Rates for controls without enzyme in the presence of 2 mM ATP (μmol/min) […]
Rates (μmol/min) at different ATP concentrations (mM) after subtraction of background […]
Calculated Km (mM ATP) and Vmax (μM ATP/min) values

[2] = biological target: T1, human topo IIα; test: Human topo IIα-mediated kDNA decatenation assay; assay type: biochemical
Method: We made use of the human topo II decatenation assay kit from Inspiralis (Norwich, U.K.) to assess the ability of selected compounds to impede DNA decatenation.[89],[90] It was performed for topo IIα and topo IIβ isoforms using the protocol as described previously.[35]

[3] = system: HepG2 cells; test: Cell cycle analysis by flow cytometry; assay type: cell-based, human; conditions: 24 h

T1 sequence (P11388 whole entry): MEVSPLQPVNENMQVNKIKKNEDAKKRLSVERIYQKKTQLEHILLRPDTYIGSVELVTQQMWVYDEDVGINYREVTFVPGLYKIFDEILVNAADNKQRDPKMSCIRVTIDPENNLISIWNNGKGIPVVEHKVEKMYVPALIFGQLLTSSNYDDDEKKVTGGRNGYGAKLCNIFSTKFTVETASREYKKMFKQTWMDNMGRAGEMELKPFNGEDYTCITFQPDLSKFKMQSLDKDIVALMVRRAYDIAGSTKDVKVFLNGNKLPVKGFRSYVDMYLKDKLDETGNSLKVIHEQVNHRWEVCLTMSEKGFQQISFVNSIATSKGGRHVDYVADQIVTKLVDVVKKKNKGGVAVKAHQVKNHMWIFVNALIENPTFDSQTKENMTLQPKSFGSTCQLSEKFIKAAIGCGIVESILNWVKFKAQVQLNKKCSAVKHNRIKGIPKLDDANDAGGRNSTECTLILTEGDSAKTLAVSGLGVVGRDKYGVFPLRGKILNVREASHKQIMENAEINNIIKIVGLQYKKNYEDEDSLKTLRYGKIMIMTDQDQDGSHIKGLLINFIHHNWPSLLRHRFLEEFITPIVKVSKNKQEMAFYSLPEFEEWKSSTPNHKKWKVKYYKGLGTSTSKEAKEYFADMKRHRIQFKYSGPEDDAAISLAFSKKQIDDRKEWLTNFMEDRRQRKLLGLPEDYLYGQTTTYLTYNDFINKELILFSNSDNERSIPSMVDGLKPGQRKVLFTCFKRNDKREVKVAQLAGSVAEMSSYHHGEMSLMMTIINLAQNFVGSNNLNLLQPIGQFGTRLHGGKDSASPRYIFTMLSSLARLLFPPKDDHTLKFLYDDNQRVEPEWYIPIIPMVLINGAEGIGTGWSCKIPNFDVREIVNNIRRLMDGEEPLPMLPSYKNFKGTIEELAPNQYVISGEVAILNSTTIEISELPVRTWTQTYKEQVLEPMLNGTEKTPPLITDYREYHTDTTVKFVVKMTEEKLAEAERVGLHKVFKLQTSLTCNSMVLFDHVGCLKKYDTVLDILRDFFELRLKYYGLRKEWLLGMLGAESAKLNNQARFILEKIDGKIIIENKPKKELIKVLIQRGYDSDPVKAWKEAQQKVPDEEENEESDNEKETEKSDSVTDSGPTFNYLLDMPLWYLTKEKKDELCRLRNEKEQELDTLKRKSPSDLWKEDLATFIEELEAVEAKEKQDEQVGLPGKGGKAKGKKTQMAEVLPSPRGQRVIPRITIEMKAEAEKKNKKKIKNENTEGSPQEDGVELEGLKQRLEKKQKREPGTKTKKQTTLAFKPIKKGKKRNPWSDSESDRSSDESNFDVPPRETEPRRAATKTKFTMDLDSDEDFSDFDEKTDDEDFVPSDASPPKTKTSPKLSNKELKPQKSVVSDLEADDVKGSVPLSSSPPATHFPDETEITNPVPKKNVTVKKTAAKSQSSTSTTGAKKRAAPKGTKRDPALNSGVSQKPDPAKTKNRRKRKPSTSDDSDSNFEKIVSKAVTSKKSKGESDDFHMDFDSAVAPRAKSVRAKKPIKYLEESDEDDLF

- IC50 ([1]; ATP 0.025 (mM per method), fit R^2 0.474, read-out: IC50 at c(ATP) 0.025): 0.0038 mM
- IC50 ([1]; ATP 0.05 (mM per method), read-out: IC50 at c(ATP) 0.05): 0.0088 mM
- IC50 ([1]; ATP 0.075 (mM per method), read-out: IC50 at c(ATP) 0.075): 0.0148 mM
- IC50 ([1]; ATP 0.1 (mM per method), read-out: IC50 at c(ATP) 0.1): 0.0094 mM
- IC50 ([1]; ATP 0.25 (mM per method), read-out: IC50 at c(ATP) 0.25): 0.0183 mM
- IC50 ([1]; ATP 0.5 (mM per method), read-out: IC50 at c(ATP) 0.5): 0.0152 mM
- IC50 ([1]; ATP 0.75 (mM per method), read-out: IC50 at c(ATP) 0.75): 0.0178 mM
- IC50 ([1]; ATP 1 (mM per method), read-out: IC50 at c(ATP) 1): 0.0216 mM
- IC50 ([1]; ATP 2 (mM per method), read-out: IC50 at c(ATP) 2): 0.0254 mM
- Calculated Vmax ([1]; compound 3.9 μM): 2.97 μM ATP/min
- Rate of ATP hydrolysis after subtraction of background ([1]; compound 3.9 μM, ATP 0.025 mM): 0.064 µmol/min
- Rate of ATP hydrolysis after subtraction of background ([1]; compound 3.9 μM, ATP 0.05 mM): 0.257 µmol/min
- Rate of ATP hydrolysis after subtraction of background ([1]; compound 3.9 μM, ATP 0.075 mM): 0.354 µmol/min
- Rate of ATP hydrolysis after subtraction of background ([1]; compound 3.9 μM, ATP 0.1 mM): 0.450 µmol/min
- Rate of ATP hydrolysis after subtraction of background ([1]; compound 3.9 μM, ATP 0.25 mM): 1.158 µmol/min
- Rate of ATP hydrolysis after subtraction of background ([1]; compound 3.9 μM, ATP 0.5 mM): 1.479 µmol/min
- Rate of ATP hydrolysis after subtraction of background ([1]; compound 3.9 μM, ATP 0.75 mM): 1.801 µmol/min
- Rate of ATP hydrolysis after subtraction of background ([1]; compound 3.9 μM, ATP 1 mM): 1.897 µmol/min
- Rate of ATP hydrolysis after subtraction of background ([1]; compound 3.9 μM, ATP 2 mM): 2.444 µmol/min
- Calculated Vmax ([1]; compound 31 μM): 1.9 μM ATP/min
- Rate of ATP hydrolysis after subtraction of background ([1]; compound 31 μM, ATP 0.05 mM): 0.032 µmol/min
- Rate of ATP hydrolysis after subtraction of background ([1]; compound 31 μM, ATP 0.075 mM): 0.096 µmol/min
- Rate of ATP hydrolysis after subtraction of background ([1]; compound 31 μM, ATP 0.1 mM): 0.161 µmol/min
- Rate of ATP hydrolysis after subtraction of background ([1]; compound 31 μM, ATP 0.25 mM): 0.450 µmol/min
- Rate of ATP hydrolysis after subtraction of background ([1]; compound 31 μM, ATP 0.5 mM): 0.707 µmol/min
- Rate of ATP hydrolysis after subtraction of background ([1]; compound 31 μM, ATP 0.75 mM): 0.868 µmol/min
- Rate of ATP hydrolysis after subtraction of background ([1]; compound 31 μM, ATP 1 mM): 1.061 µmol/min
- Rate of ATP hydrolysis after subtraction of background ([1]; compound 31 μM, ATP 2 mM): 1.286 µmol/min
- Calculated Vmax ([1]; compound 50 μM): 2.77 μM ATP/min
- Rate of ATP hydrolysis after subtraction of background ([1]; compound 50 μM, ATP 0.025 mM): 0.000 µmol/min
- Rate of ATP hydrolysis after subtraction of background ([1]; compound 50 μM, ATP 0.05 mM): 0.096 µmol/min
- Rate of ATP hydrolysis after subtraction of background ([1]; compound 50 μM, ATP 0.075 mM): 0.129 µmol/min
- Rate of ATP hydrolysis after subtraction of background ([1]; compound 50 μM, ATP 0.1 mM): 0.032 µmol/min
- Rate of ATP hydrolysis after subtraction of background ([1]; compound 50 μM, ATP 0.25 mM): 0.193 µmol/min
- Rate of ATP hydrolysis after subtraction of background ([1]; compound 50 μM, ATP 0.5 mM): 0.450 µmol/min
- Rate of ATP hydrolysis after subtraction of background ([1]; compound 50 μM, ATP 0.75 mM): 0.707 µmol/min
- Rate of ATP hydrolysis after subtraction of background ([1]; compound 50 μM, ATP 1 mM): 0.772 µmol/min
- Rate of ATP hydrolysis after subtraction of background ([1]; compound 50 μM, ATP 2 mM): 1.222 µmol/min
- Calculated Vmax ([1]; compound 75 μM): 1.94 μM ATP/min
- Rate of ATP hydrolysis after subtraction of background ([1]; compound 75 μM, ATP 0.025 mM): 0.096 µmol/min
- Rate of ATP hydrolysis after subtraction of background ([1]; compound 75 μM, ATP 0.05 mM): 0.032 µmol/min
- Rate of ATP hydrolysis after subtraction of background ([1]; compound 75 μM, ATP 0.1 mM): 0.064 µmol/min
- Rate of ATP hydrolysis after subtraction of background ([1]; compound 75 μM, ATP 0.25 mM): 0.225 µmol/min
- Rate of ATP hydrolysis after subtraction of background ([1]; compound 75 μM, ATP 0.5 mM): 0.322 µmol/min
- Rate of ATP hydrolysis after subtraction of background ([1]; compound 75 μM, ATP 0.75 mM): 0.386 µmol/min
- Rate of ATP hydrolysis after subtraction of background ([1]; compound 75 μM, ATP 1 mM): 0.354 µmol/min
- Rate of ATP hydrolysis after subtraction of background ([1]; compound 75 μM, ATP 2 mM): 0.740 µmol/min
- Calculated Vmax ([1]; compound 100 μM): 3.07 μM ATP/min
- Rate of ATP hydrolysis after subtraction of background ([1]; compound 100 μM, ATP 0.025 mM): 0.064 µmol/min
- Rate of ATP hydrolysis after subtraction of background ([1]; compound 100 μM, ATP 0.05 mM): 0.032 µmol/min
- Rate of ATP hydrolysis after subtraction of background ([1]; compound 100 μM, ATP 0.075 mM): 0.000 µmol/min
- Rate of ATP hydrolysis after subtraction of background ([1]; compound 100 μM, ATP 0.1 mM): 0.032 µmol/min
- Rate of ATP hydrolysis after subtraction of background ([1]; compound 100 μM, ATP 0.25 mM): 0.064 µmol/min
- Rate of ATP hydrolysis after subtraction of background ([1]; compound 100 μM, ATP 0.5 mM): 0.418 µmol/min
- Rate of ATP hydrolysis after subtraction of background ([1]; compound 100 μM, ATP 0.75 mM): 0.289 µmol/min
- Rate of ATP hydrolysis after subtraction of background ([1]; compound 100 μM, ATP 1 mM): 0.354 µmol/min
- Rate of ATP hydrolysis after subtraction of background ([1]; compound 100 μM, ATP 2 mM): 0.772 µmol/min
- % Decatenated Average ([2]; 31.5 μM): 80.9%
- inhibition of decatenation ([2]; 125 μM): complete inhibition
- inhibition of decatenation ([2]; 500 μM): complete inhibition
Structure (SMILES): Cc1nc(N)sc1-c1csc(Nc2ccc(C(F)(F)F)cc2)n1 [Compound 1]
- cell cycle arrest (in words) [3]: cell cycle arrest in the G1 phase
